Source: patent US20170239212A1, “[…] AND USE THEREOF AS ANTIVIRAL AGENTS” (priority 2014, published 2017)

How the values were obtained:
[1] = test system: HIV long terminal repeat (LTR) promoter; experiment: HOS LTR stimulation assay (luciferase reporter); format: cell-based; conditions: HOS cells; for Max signal (% of control): LTR-luciferase signal; for EC50: LTR-luciferase, incubated 24, 48 and 72 hours (time of the listed values not stated), read-out: EC50; for Conc (uM) at Max: concentration at maximal LTR-luciferase signal
Description: In the assay, non T cell derived human osteosarcoma (HOS) cells are transfected with a luciferase reporter under control of an HIV long terminal repeat (LTR) promoter. Compounds that stimulate the HIV LTR promoter will produce luciferase in a dose dependent manner.
(§1) Specifically, EC50 and CC50 values were determined in parallel using 10 concentrations of compound from 3 fold serial dilutions starting a 5 uM as the highest concentration. Cells and media were added to compounds with a final concentration of DMSO of 1% and incubated at 37° C., 5% CO2 for 24, 48 and 72 hours. EC50 was measured by induced luciferase activity detected by the use of the Steady-Glo® Luciferase reagent (PROMEGA) with an EnVision (Perkin-Elmer) plate reader. CC50 was determined by the dose dependent knock down of cellular ATP detected by the use of CellTiter-Glo® Luminescent Cell Viability reagent (PROMEGA) with an EnVision (Perkin-Elmer) plate reader.
The error bars represent the average and the standard error of the mean of at least three independent experiments.

[2] = test system: human osteosarcoma (HOS) cells; experiment: HOS cell viability (CellTiter-Glo, cellular ATP); format: cell-based; design: unit not given here; conditions: knock down of cellular ATP
Description: as §1

Jurkat cell line = experiment: in vitro; format: cell-based; conditions: Jurkat cells, knock down of cellular ATP
Description: as §1, with “The compounds were also tested in the T cell derived Jurkat cell line transfected with a luciferase reporter under control of an HIV long terminal repeat (LTR) promoter. Specifically,” for “Specifically,”

[3] = target: HIV long terminal repeat (LTR) promoter; experiment: in vitro; format: cell-based; conditions: Jurkat cells; for EC50: LTR-luciferase, incubated 24, 48 and 72 hours (time of the listed values not stated)
Description: as §1, with “The compounds were also tested in the T cell derived Jurkat cell line transfected with a luciferase reporter under control of an HIV long terminal repeat (LTR) promoter. Specifically,” for “Specifically,”

[4] = target: mouse recombinant isozyme PKCα (Mus musculus, UniProt P20444); experiment: [3H]PDBu binding assay (polyethylene glycol precipitation); conditions: calcium and phosphatidylserine present, 2 nM [3H]PDBu, read-out: Ki (inhibitory dissociation constant, displacement of [3H]PDBu)
Description: [^3H]PDBu Binding Assay. The inhibitory dissociation constant (Ki) of each bryologue ligand was determined by the ability of the ligand to displace bound [20-^3H]phorbol 12,13-dibutyrate (PDBu) from mouse recombinant isozyme PKCα in the presence of calcium and phosphatidylserine, using a polyethylene glycol precipitation assay developed in our laboratory as described elsewhere. Briefly, the assay mixture (250 μL) contained 50 mM Tris-HCl (pH 7.4 at room temperature), 100 μg/mL phosphatidylserine, 0.1 mM Ca^2+, 4 mg/mL bovine immunoglobulin G and 0.003% Tx-100, 2 nM [^3H]PDBu and various concentrations of the competing ligand. […] The radioactivity was determined by scintillation counting, using Cytoscint (ICN, Costa Mesa, Calif.). Specific binding was calculated as the difference between total and nonspecific PDBu binding. The Inhibitory dissociation constants (Ki) were calculated using the method previously described by Blumberg and Lewin.
The inhibitory dissociation constant (Ki) of MERLE 28 was determined by the ability of the ligand to displace bound [20-^3H]phorbol 12,13-dibutyrate (PDBu) from mouse recombinant isozyme PKCα in the presence of calcium and phosphatidylserine, using a polyethylene glycol precipitation assay previously described by Blumberg and Lewin. […] The radioactivity was determined by scintillation counting, using Cytoscint (ICN, Costa Mesa, Calif.). […]

in vitro = format: cell-based; conditions: human; Jurkat cells, knock down of cellular ATP
Description: as §1, with “The compounds were also tested in the T cell derived Jurkat cell line transfected with a luciferase reporter under control of an HIV long terminal repeat (LTR) promoter. Specifically,” for “Specifically,”

Row | SMILES | Max signal (% of control) [1] | EC50 [1] [nM] | Conc (uM) at Max [1] [µM] | CCEC50 [2] | CC50 (Jurkat cell line) [nM] | EC50 [3] [nM] | Selectivity (CC50:EC50) ([3]; ratio of the CC50 to the EC50) | Ki [4] [nM] | EC50 ([1]; Human immunodeficiency virus 1) [nM] | CC50 (in vitro) [nM] | EC50 ([3]; Human immunodeficiency virus 1) [nM] | selectivity ratio ([3]; human, ratio of the CC50 to the EC50)
1 | COC(=O)/C=C1/C[C@H]2C[C@]3(O)O[C@H](C[C@@H](O)CC(=O)O[C@@H]([C@@H](C)O)C[C@@H]4C/C(=C\C(=O)OC)[C@H](OC(C)=O)[C@@](O)(O4)C(C)(C)/C=C/[C@@H](C1)O2)C[C@H](OC(C)=O)C3(C)C [Bryostatin 7] | 250 % of control | 6 | 0.07 | 6.24 | 4.6 | 1 | 4.6 | – | – | – | – | –
2 | C=C1C[C@H]2C[C@H]3C[C@@H](OC(C)=O)C[C@@H](C[C@@H](O)CC(=O)O[C@@H]([C@@H](C)O)C[C@@H]4C/C(=C\C(=O)OC)[C@H](OC(=O)CCCCCCC)[C@@](O)(O4)C(C)(C)/C=C/[C@@H](C1)O2)O3 [MERLE 27] | – | – | – | – | – | – | – | 3 ± 0.06 | – | – | – | –
3 | CC(=O)O[C@@]12C[C@@H](C)[C@@]3(O)[C@@H](C=C(CO)C[C@]4(O)C(=O)C(C)=C[C@@H]34)[C@@H]1C2(C)C [Prostratin] | 274 % of control | – | 27.78 | >50 | – | – | – | – | 1080 | 370 | 130 | 2.8
